For this experiment, the target named is HDM2 (MDM2) (Homo sapiens, UniProt Q00987). As to the kind of experiment: HTR-FRET competition assay of biotin-p53 / GST-HDM2 binding.

SMILES strings stand for the structures.

Usually IC50 stands for the concentration that inhibits the measured activity by half. A lower IC50 goes with higher potency.

HDM2 (MDM2), sequence (Q00987 whole entry): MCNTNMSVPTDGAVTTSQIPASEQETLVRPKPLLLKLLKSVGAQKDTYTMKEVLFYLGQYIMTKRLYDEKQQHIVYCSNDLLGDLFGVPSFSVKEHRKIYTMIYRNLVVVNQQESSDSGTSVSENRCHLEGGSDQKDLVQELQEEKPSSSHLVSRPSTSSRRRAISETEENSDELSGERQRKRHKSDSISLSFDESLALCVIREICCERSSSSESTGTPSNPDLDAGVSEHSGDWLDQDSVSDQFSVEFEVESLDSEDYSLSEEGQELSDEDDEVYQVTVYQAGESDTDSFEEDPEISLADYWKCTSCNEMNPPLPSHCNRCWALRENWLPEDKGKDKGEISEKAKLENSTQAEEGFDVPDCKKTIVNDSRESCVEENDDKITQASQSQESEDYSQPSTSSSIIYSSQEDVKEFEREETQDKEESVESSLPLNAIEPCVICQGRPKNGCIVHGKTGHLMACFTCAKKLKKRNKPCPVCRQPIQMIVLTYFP

For `CCC[C@@H](C)[C@H](O)[C@H](C)[C@@H](O)[C@@H](C)[C@H](Cc1nc(C2=N[C@@](C)(C3=N[C@@](C)(C(=O)N[C@H]([C@@H](O)[C@@H](C)C(=O)O)[C@@H](C)CC)CS3)CS2)cs1)OC` [compound 1, hoiamide D], the IC50 is 4.5 µM.

For the origin of these results see article PMC3248991 (2011).
